From patent US12472193B2, “Methods and compositions for treating and preventing respiratory related diseases and conditions with xylitol-headgroup lipid analogs” (National Jewish Health, priority 2017, dated 2025)

Columns and labels:
TLR 3 ectodomain = target: T1, TLR 3 ectodomain (Homo sapiens, UniProt O15455); experiment: Binding of TLR 3 ectodomain to solid phase phospholipid; conditions: for binding to TLR 3 ectodomain: 0.625 nmol lipid per well, 6 μg/mL TLR 3 protein; for concentration-dependent binding of TLR 3: binding curves
T1 construct: purchased R&D system
T1 sequence (O15455 24-704 limits assumed): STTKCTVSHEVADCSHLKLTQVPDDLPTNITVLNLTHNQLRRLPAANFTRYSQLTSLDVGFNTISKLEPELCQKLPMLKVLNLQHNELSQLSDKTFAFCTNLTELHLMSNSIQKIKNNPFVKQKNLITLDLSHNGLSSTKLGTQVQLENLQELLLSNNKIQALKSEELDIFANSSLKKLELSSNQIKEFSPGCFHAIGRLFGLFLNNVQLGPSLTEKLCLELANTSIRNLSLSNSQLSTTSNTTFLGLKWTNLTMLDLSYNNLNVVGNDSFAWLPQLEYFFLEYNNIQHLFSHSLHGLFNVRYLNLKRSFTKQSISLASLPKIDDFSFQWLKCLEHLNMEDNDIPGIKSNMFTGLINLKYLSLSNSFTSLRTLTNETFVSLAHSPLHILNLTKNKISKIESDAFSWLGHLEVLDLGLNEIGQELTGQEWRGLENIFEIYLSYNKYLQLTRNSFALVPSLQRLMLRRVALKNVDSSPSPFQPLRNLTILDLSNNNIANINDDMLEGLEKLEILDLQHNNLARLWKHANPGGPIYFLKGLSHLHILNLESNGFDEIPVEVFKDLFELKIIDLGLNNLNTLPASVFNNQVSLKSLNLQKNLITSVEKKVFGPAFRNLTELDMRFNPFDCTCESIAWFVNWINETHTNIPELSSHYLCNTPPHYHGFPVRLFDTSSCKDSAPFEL
Method: Lipids were dried under a stream of nitrogen and resuspended i 100% ethanol, and 0.625 nmol was added in a 40 μL volume to each well of a half-area, 96-well plate. The solvent was evaporated under warm air for 90 minutes. 120 μL of blocking solution (150 mM NaCl, 20 mM sodium acetate pH 5.5 containing 3% BSA w/v) was added to each well and incubated for 1 hour at room temperature. Wells were then washed with (150 mM NaCl, 20 mM sodium acetate pH 5.5) followed by the addition of 40 μL of 6 μg/mL TLR 3 ectodomain in blocking solution to each well and the plate was incubated at 37° C. for 1 hour. The wells were washed 3 times and 40 μL of human TLR 3 primary antibody, diluted 1:500, was added and incubated overnight at 4° C. After washing out the primary antibody with (150 mM NaCl, 20 mM Tris pH 7.4), a secondary (rabbit anti-goat) antibody conjugated to horseradish peroxidase (HRP), diluted 1:1000, was added in 40 μL aliquots to each well and incubated at 37° C. for 1 hour. After washing, the peroxidase activity was detected with the substrate o-phenylenediamine and the absorbance read at 490 nm to detect degree of binding.
Solid phase lipid binding to fluid phase TLR 3 ectodomain was examined as a potential explanation for the differences in activity. Lipids were dried under a stream of nitrogen and resuspended in 100% ethanol. 0.625 nmol of lipid was plated per well in a 96-well plate and dried for 90 minutes. BSA was used to block non-specific binding and then TLR 3 protein was added to each well at 6 μg/mL and incubated at 37° C. for one hour. After washing out unbound protein, primary antibody was added for detection of TLR 3 and incubated overnight at 4° C. The following day secondary antibody conjugated to HRP was added to the wells and the peroxidase reaction activated by o-phenylenediamine. The absorbance was read at 490 nm to detect binding.

TLR 4 = target: T2, TLR 4 (Mus musculus, UniProt Q9JHF9+Q9QUK6); experiment: LPS-induced TNF-α secretion by RAW264.7 cells (TLR 4 antagonism); assay type: cell-based; conditions: reduction in cytokine secretion vs activating TLR ligand alone
T2 construct: LPS was added to RAW264.7 cells at 10 ng/mL in the absence or presence of 50 μg/mL of lipid; endogenous in cells; host or cells: RAW264.7 (ATCC)
T2 sequence (Q9QUK6 26-835): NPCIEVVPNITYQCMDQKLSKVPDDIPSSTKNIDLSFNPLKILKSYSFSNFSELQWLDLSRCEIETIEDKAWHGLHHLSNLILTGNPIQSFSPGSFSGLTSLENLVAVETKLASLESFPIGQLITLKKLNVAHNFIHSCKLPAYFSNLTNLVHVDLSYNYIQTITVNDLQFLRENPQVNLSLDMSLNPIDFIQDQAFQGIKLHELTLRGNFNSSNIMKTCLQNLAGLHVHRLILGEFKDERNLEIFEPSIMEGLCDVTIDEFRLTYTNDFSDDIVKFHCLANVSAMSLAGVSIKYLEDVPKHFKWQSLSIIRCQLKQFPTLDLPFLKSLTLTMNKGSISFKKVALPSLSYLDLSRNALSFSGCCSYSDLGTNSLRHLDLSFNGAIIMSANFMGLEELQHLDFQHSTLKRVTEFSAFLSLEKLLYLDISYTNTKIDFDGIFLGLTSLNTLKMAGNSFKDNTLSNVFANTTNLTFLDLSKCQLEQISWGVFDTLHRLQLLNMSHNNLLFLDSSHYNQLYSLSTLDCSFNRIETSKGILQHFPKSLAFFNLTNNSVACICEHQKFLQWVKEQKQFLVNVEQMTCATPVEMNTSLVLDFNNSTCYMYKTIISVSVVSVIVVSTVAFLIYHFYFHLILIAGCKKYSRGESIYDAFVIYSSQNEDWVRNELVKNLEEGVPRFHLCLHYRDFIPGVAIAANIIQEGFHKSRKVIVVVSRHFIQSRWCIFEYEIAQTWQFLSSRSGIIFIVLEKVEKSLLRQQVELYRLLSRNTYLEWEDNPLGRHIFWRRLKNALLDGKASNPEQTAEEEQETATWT
T2 sequence (Q9JHF9 19-160): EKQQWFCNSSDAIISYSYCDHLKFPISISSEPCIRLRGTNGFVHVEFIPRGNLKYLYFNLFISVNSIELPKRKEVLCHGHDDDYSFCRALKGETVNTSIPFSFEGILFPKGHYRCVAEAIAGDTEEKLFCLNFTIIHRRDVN

Row | SMILES | binding to TLR 3 ectodomain (TLR 3 ectodomain) | concentration-dependent binding of TLR 3 (TLR 3 ectodomain) | TLR2 antagonist activity (TLR 4)
1 | CCCCCCCCC=CCCCCCCCCOCC(COP(=O)(O)OCC(O)C(O)C(O)CO)OCCCCCCCCC=CCCCCCCCC (mixture of isomers) [18:1 DEPX, sn-1-O-octadecenyl, sn-2-O-octadecenyl sn-3 glycerol phosphoxylitol] | not statistically different from POPG | significantly different from POPC | + (cutoff being greater than a 50% reduction in cytokine secretion compared to activating TLR ligand alone)
2 | CCCCCCCCCCCCCC(=O)OC[C@H](COP(=O)(O)OCC(O)C(O)C(O)CO)OC(=O)CCCCCCCCCCCCC (mixture of isomers) [DMPX, sn-1-myristoyl, sn-2-myristoyl sn-3 glycerol phosphoxylitol] |  |  | + (cutoff being greater than a 50% reduction in cytokine secretion compared to activating TLR ligand alone)
3 | CCCCCC=CCC=CCCCCCCCC(=O)OCC(COP(=O)(O)OCC(O)C(O)C(O)CO)OC(=O)CCCCCCCC=CCC=CCCCCC (mixture of isomers) [18:2 DLPX, sn-1-linoleoyl, sn-2-linoleoyl sn-3 glycerol phosphoxylitol] | not statistically different from POPG |  | + (cutoff being greater than a 50% reduction in cytokine secretion compared to activating TLR ligand alone)
4 | CCCCCCC=CCCCCCCCC(=O)OCC(COP(=O)(O)OCC(O)C(O)C(O)CO)OC(=O)CCCCCCCC=CCCCCCC (mixture of isomers) [16:1 DPPX, sn-1-palmitoleoyl, sn-2-palmitoleoyl sn-3 glycerol phosphoxylitol] |  | significantly different from POPC | + (cutoff being greater than a 50% reduction in cytokine secretion compared to activating TLR ligand alone)
5 | CCCCCCCCC=CCCCCCCCC(=O)OCC(COP(=O)(O)OCC(O)C(O)C(O)CO)OC(=O)CCCCCCCC=CCCCCCCCC (mixture of isomers) [DOPX, sn-1-oleoyl, sn-2-oleoyl sn-3 glycerol phosphoxylitol] |  |  | + (cutoff being greater than a 50% reduction in cytokine secretion compared to activating TLR ligand alone)
6 | CCCCCCCC/C=C\CCCCCCCC(=O)O[C@H](COC(=O)CCCCCCCCCCCCCCC)COP(=O)(O)OCC(O)C(O)C(O)CO (some centres unmarked) [POPX, sn-1-palmitoyl, sn-2-oleoyly sn-3 glycerol phosphoxylitol] |  |  | + (cutoff being greater than a 50% reduction in cytokine secretion compared to activating TLR ligand alone)
7 | CCCCCCCCCCCCCCOC[C@H](COP(=O)(O)OCC(O)C(O)C(O)CO)OCCCCCCCCCCCCCC (mixture of isomers) [14:0 DEPX, sn-1-O-myristyl, sn-2-O-myristyl sn-3 glycerol phosphoxylitol] | all xylitol analogs except 14:0 DEPX demonstrated specific binding |  | + (cutoff being greater than a 50% reduction in cytokine secretion compared to activating TLR ligand alone)
8 | CCCCCCCC/C=C\CCCCCCCC(=O)O[C@H](COC(=O)CCCCCCCCCCCCCCC)COP(=O)(O)OCC(O)CO (some centres unmarked) [POPG, palmitoyl-oleoyl-phosphatidylglycerol, reference compound] | specific binding to TLR 3 ectodomain | significantly different from POPC | 
